The text below walks through data of patent US20080114007A1 (priority 2006, published 2008).

One may read the IC50 as the concentration needed to halve the response being measured.

CSF-1R, sequence (P07333 20-972): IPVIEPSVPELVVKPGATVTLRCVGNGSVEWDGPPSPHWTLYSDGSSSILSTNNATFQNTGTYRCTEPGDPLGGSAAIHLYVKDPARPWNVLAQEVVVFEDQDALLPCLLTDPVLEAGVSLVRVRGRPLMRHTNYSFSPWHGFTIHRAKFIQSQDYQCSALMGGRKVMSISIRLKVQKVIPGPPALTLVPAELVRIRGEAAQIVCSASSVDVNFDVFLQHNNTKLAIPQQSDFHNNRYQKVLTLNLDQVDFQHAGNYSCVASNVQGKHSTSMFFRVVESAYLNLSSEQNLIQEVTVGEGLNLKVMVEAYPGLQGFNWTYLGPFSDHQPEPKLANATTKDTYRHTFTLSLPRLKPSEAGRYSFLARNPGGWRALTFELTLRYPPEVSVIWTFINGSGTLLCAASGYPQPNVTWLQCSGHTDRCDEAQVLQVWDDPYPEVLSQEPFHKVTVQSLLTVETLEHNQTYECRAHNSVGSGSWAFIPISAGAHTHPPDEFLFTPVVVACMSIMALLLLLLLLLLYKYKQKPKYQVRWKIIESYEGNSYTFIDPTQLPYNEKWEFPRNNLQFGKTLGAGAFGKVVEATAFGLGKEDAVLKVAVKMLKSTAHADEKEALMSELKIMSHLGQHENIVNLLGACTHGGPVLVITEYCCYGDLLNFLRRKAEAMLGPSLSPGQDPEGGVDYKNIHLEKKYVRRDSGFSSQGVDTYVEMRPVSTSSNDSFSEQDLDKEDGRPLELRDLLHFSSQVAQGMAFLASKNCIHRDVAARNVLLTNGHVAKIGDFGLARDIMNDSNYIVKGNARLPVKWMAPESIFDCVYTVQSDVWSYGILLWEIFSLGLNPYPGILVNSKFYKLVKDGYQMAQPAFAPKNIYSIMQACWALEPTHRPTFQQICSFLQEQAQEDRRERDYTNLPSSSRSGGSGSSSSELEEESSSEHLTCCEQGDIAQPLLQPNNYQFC

This experiment concerns the target CSF-1R (Homo sapiens, UniProt P07333). Kind of experiment: Peptide (non-phosphorylated) assay, fluorescence polarization competition immunoassay. In kind it is biochemical. Particulars: 0.7 nM CSF-1R, 308 μM SYEGNSYTFIDPTQ peptide, 1 mM ATP, 80 min; mean of at least three determinations; read-out: c-fms Peptide IC50. The method, boiled down: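 Read-out is fluorescence polarization: after EDTA quench, anti-phosphotyrosine antibody plus PTK green tracer compete with the phosphorylated peptide for 30 min. The CSF-1R reaction itself ran 80 min at room temperature after ATP addition. DMSO (4%) wells served as controls, positive controls pre-treated with EDTA.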
With `CONC(=O)c1cn(-c2ccc3c(c2)CCC3)c2nc(Nc3ccc(CCN4CCC[C@@H](O)C4)cc3)ncc2c1=O` [Cpd 239, 2-{4-{2-[(3R)-(3-hydroxy-piperidin-1-yl)]-ethyl}-phenylamino}-8-indan-5-yl-5-oxo-5,8-dihydro-pyrido[2,3-d]pyrimidine-6-carboxylic acid methoxy-amide], the 50% inhibitory concentration (IC50) amounted to 0.32 nM.

`CCc1ccc(-n2cc(C(=O)NOC)c(=O)c3cnc(Nc4cccc(N5CCOCC5)c4)nc32)cc1` [Cpd 320, 8-(4-ethyl-phenyl)-2-(3-morpholin-4-yl-phenylamino)-5-oxo-5,8-dihydro-pyrido[2,3-d]pyrimidine-6-carboxylic acid methoxy-amide]: the half-maximal inhibitory concentration (IC50) amounted to 0.5 nM.

In the case of `CONC(=O)c1cn(-c2cnc3c(c2)CCC3)c2nc(Nc3ccc(CCO)cc3)ncc2c1=O` [Cpd 227, 8-(6,7-dihydro-5H-[1]pyrindin-3-yl)-2-[4-(2-hydroxy-ethyl)-phenylamino]-5-oxo-5,8-dihydro-pyrido[2,3-d]pyrimidine-6-carboxylic acid methoxy-amide], the concentration for half-maximal inhibition (IC50) amounted to 10 nM.

On to `CONC(=O)c1cn(-c2ccc3c(c2)CCC3)c2nc(Nc3ccc(Cn4cncn4)cc3)ncc2c1=O` [Cpd 283, 8-indan-5-yl-5-oxo-2-(4-[1,2,4]triazol-1-ylmethyl-phenylamino)-5,8-dihydro-pyrido[2,3-d]pyrimidine-6-carboxylic acid methoxy-amide], for which the half-maximal inhibitory concentration (IC50) stood at 0.9 nM.

For the molecule `CONC(=O)c1cn(-c2ccc3c(c2)CCC3)c2nc(Nc3ccc(C4CCCCN4)cc3)ncc2c1=O` (stereo not shown) [Cpd 246, 8-indan-5-yl-5-oxo-2-(4-piperidin-2-yl-phenylamino)-5,8-dihydro-pyrido[2,3-d]pyrimidine-6-carboxylic acid methoxy-amide], the half-maximal inhibitory concentration (IC50) came to 0.38 nM.

`CCONC(=O)c1cn(-c2ccc3c(c2)CCC3)c2nc(Nc3ccc(CCN4CCCC4=O)cc3)ncc2c1=O` [Cpd 135, 8-indan-5-yl-5-oxo-2-{4-[2-(2-oxo-pyrrolidin-1-yl)-ethyl]-phenylamino}-5,8-dihydro-pyrido[2,3-d]pyrimidine-6-carboxylic acid ethoxy-amide]: the IC50 was 66 nM.

As to `CONC(=O)c1cn(-c2ccc3c(c2)CCC3)c2nc(Nc3ccc(N4CCC[C@H]4CO)cc3)ncc2c1=O` [Cpd 7, (S)-2-[4-(2-hydroxymethyl-pyrrolidin-1-yl)-phenylamino]-8-indan-5-yl-5-oxo-5,8-dihydro-pyrido[2,3-d]pyrimidine-6-carboxylic acid methoxy-amide], the IC50 is 1.7 nM.

On to `CONC(=O)c1cn(-c2ccc3c(c2)CCC3)c2nc(Nc3ccc(CCC(=O)NS(C)(=O)=O)cc3)ncc2c1=O` [Cpd 153, 8-indan-5-yl-2-[4-(3-methanesulfonylamino-3-oxo-propyl)-phenylamino]-5-oxo-5,8-dihydro-pyrido[2,3-d]pyrimidine-6-carboxylic acid methoxy-amide], for which the concentration for half-maximal inhibition (IC50) amounted to 3.2 nM.

As to `CONC(=O)c1cn(-c2ccc3c(c2)CCC3)c2nc(Nc3ccc(CCN4CCCC(F)C4)cc3)ncc2c1=O` (stereo not shown) [Cpd 256, 2-{4-[2-(3-fluoro-piperidin-1-yl)-ethyl]-phenylamino}-8-indan-5-yl-5-oxo-5,8-dihydro-pyrido[2,3-d]pyrimidine-6-carboxylic acid methoxy-amide], the IC50 turned out to be 0.88 nM.

`CONC(=O)c1cn(C2CCC(C)(C)CC2)c2nc(Nc3ccc(C4CCN(CCO)CC4)cc3)ncc2c1=O` [Cpd 210, 8-(4,4-dimethyl-cyclohexyl)-2-{4-[1-(2-hydroxy-ethyl)-piperidin-4-yl]-phenylamino}-5-oxo-5,8-dihydro-pyrido[2,3-d]pyrimidine-6-carboxylic acid methoxy-amide]: the IC50 worked out at 0.25 nM.

Turning to `CCc1ccc(-n2cc(C(=O)NOC)c(=O)c3cnc(Nc4ccc(C5CCN(CC(=O)O)CC5)cc4)nc32)cc1` [Cpd 94, (4-{4-[8-(4-ethyl-phenyl)-6-methoxycarbamoyl-5-oxo-5,8-dihydro-pyrido[2,3-d]pyrimidin-2-ylamino]-phenyl}-piperidin-1-yl)-acetic acid], the 50% inhibitory concentration (IC50) was found to be 0.9 nM.

`CCc1ccc(-n2cc(C(=O)NOC)c(=O)c3cnc(Nc4ccc(CC(=O)O)cc4)nc32)cc1` [Cpd 103, {4-[8-(4-ethyl-phenyl)-6-methoxycarbamoyl-5-oxo-5,8-dihydro-pyrido[2,3-d]pyrimidin-2-ylamino]-phenyl}-acetic acid]: the concentration for half-maximal inhibition (IC50) amounted to 7.2 nM.

In the case of `CONC(=O)c1cn(C2CCCCC2)c2nc(Nc3ccc(C4CCN(C)CC4)cc3)ncc2c1=O` [Cpd 140, 8-cyclohexyl-2-[4-(1-methyl-piperidin-4-yl)-phenylamino]-5-oxo-5,8-dihydro-pyrido[2,3-d]pyrimidine-6-carboxylic acid methoxy-amide], the half-maximal inhibitory concentration (IC50) was found to be 4.8 nM.

With `CONC(=O)c1cn(-c2ccc3c(c2)CCC3)c2nc(Nc3ccc(C4CCCCN4C)cc3)ncc2c1=O` (stereo not shown) [Cpd 243, 8-indan-5-yl-2-[4-(1-methyl-piperidin-2-yl)-phenylamino]-5-oxo-5,8-dihydro-pyrido[2,3-d]pyrimidine-6-carboxylic acid methoxy-amide], the IC50 amounted to 0.52 nM.

`NC(=O)c1cn(-c2ccc3c(c2)CCC3)c2nc(Nc3ccc(CCN4CCCC4)cc3)ncc2c1=O` [Cpd 5, 8-indan-5-yl-5-oxo-2-[4-(2-pyrrolidin-1-yl-ethyl)-phenylamino]-5,8-dihydro-pyrido[2,3-d]pyrimidine-6-carboxylic acid amide]: the IC50 amounted to 1.5 nM.

As for `CONC(=O)c1cn(-c2ccc3c(c2)CCC3)c2nc(Nc3ccc(CCN4CCNCC4)cc3)ncc2c1=O` [Cpd 144, 8-indan-5-yl-5-oxo-2-[4-(2-piperazin-1-yl-ethyl)-phenylamino]-5,8-dihydro-pyrido[2,3-d]pyrimidine-6-carboxylic acid methoxy-amide], the 50% inhibitory concentration (IC50) was determined as 0.4 nM.

As to `CONC(=O)c1cn(-c2ccc3c(c2)CCC3)c2nc(Nc3cccc(C4CCCN(C)C4)c3)ncc2c1=O` (stereo not shown) [Cpd 271, 8-indan-5-yl-2-[3-(1-methyl-piperidin-3-yl)-phenylamino]-5-oxo-5,8-dihydro-pyrido[2,3-d]pyrimidine-6-carboxylic acid methoxy-amide], the half-maximal inhibitory concentration (IC50) is 3.2 nM.

Regarding `CONC(=O)c1cn(-c2ccc3c(c2)CCC3)c2nc(Nc3ccc(CCN4CC[C@H](F)C4)cc3)ncc2c1=O` [Cpd 253, 2-(4-{2-[(3S)-(3-fluoro-pyrrolidin-1-yl)]-ethyl}-phenylamino)-8-indan-5-yl-5-oxo-5,8-dihydro-pyrido[2,3-d]pyrimidine-6-carboxylic acid methoxy-amide], the IC50 turned out to be 0.66 nM.

Turning to `CONC(=O)c1cn(C2CCCCC2)c2nc(Nc3ccc(C[C@H]4COC(=O)N4)cc3)ncc2c1=O` [Cpd 22, (S)-8-cyclohexyl-5-oxo-2-[4-(2-oxo-oxazolidin-4-ylmethyl)-phenylamino]-5,8-dihydro-pyrido[2,3-d]pyrimidine-6-carboxylic acid methoxy-amide], the IC50 is 1.5 nM.

In the case of `CONC(=O)c1cn(-c2ccc3c(c2)CCC3)c2nc(Nc3cccc(C4CCN(C(C)=O)CC4)c3)ncc2c1=O` [Cpd 197, 2-[3-(1-acetyl-piperidin-4-yl)-phenylamino]-8-indan-5-yl-5-oxo-5,8-dihydro-pyrido[2,3-d]pyrimidine-6-carboxylic acid methoxy-amide], the IC50 amounted to 1.4 nM.

With `O=C(c1cn(C2CCCC2)c2nc(Nc3ccc(CCN4CCCC4)cc3)ncc2c1=O)N1CCOCC1` [Cpd 42, 8-cyclopentyl-6-(morpholine-4-carbonyl)-2-[4-(2-pyrrolidin-1-yl-ethyl)-phenylamino]-8H-pyrido[2,3-d]pyrimidin-5-one], the half-inhibitory concentration (IC50) was determined as 57 nM.

In the case of `CONC(=O)c1cn(-c2ccc3c(c2)CCC3)c2nc(Nc3ccc(CCNC4CC5CCC4C5)cc3)ncc2c1=O` (stereo not shown) [Cpd 108, 2-{4-[2-(bicyclo[2.2.1]hept-2-ylamino)-ethyl]-phenylamino}-8-indan-5-yl-5-oxo-5,8-dihydro-pyrido[2,3-d]pyrimidine-6-carboxylic acid methoxy-amide], the IC50 was 0.88 nM.

`CCc1ccc(-n2cc(C(=O)NOC)c(=O)c3cnc(Nc4cccc(OCCOC)c4)nc32)cc1` [Cpd 215, 8-(4-ethyl-phenyl)-2-[3-(2-methoxy-ethoxy)-phenylamino]-5-oxo-5,8-dihydro-pyrido[2,3-d]pyrimidine-6-carboxylic acid methoxy-amide]: the concentration for half-maximal inhibition (IC50) stood at 1 nM.

`CONC(=O)c1cn(-c2ccc3c(c2)CCC3)c2nc(Nc3ccc(CCN4CC(F)C4)cc3)ncc2c1=O` [Cpd 266, 2-{4-[2-(3-fluoro-azetidin-1-yl)-ethyl]-phenylamino}-8-indan-5-yl-5-oxo-5,8-dihydro-pyrido[2,3-d]pyrimidine-6-carboxylic acid methoxy-amide]: the concentration for half-maximal inhibition (IC50) amounted to 0.62 nM.

For the molecule `CCNC(=O)c1cn(-c2ccc3c(c2)CCC3)c2nc(Nc3cccc(CCCN(C)C)c3)ncc2c1=O` [Cpd 117, 2-[3-(3-dimethylamino-propyl)-phenylamino]-8-indan-5-yl-5-oxo-5,8-dihydro-pyrido[2,3-d]pyrimidine-6-carboxylic acid ethylamide], the half-maximal inhibitory concentration (IC50) worked out at 6.5 nM.

Regarding `CONC(=O)c1cn(-c2ccc3c(c2)CCC3)c2nc(Nc3ccc(C4CCNCC4)cc3)ncc2c1=O` [Cpd 75, 8-indan-5-yl-5-oxo-2-(4-piperidin-4-yl-phenylamino)-5,8-dihydro-pyrido[2,3-d]pyrimidine-6-carboxylic acid methoxy-amide], the IC50 was found to be 0.53 nM.

As for `COCCNC(=O)c1cn(-c2ccc3c(c2)CCC3)c2nc(Nc3ccc(CCN4CCCC4)cc3)ncc2c1=O` [Cpd 132, 8-indan-5-yl-5-oxo-2-[4-(2-pyrrolidin-1-yl-ethyl)-phenylamino]-5,8-dihydro-pyrido[2,3-d]pyrimidine-6-carboxylic acid (2-methoxy-ethyl)-amide], the IC50 turned out to be 12 nM.

With `CNCCS(=O)(=O)c1cccc(Nc2ncc3c(=O)c(C(=O)NOC)cn(-c4ccc5c(c4)CCC5)c3n2)c1` [Cpd 231, 8-indan-5-yl-2-[3-(2-methylamino-ethanesulfonyl)-phenylamino]-5-oxo-5,8-dihydro-pyrido[2,3-d]pyrimidine-6-carboxylic acid methoxy-amide], the IC50 was determined as 0.71 nM.
